# Results published in PubChem BioAssay AID2060890 (Molecular Pharmacology Branch, DTP, NCI, 2025).
# pIC50: −log10 of the molar value.
# Tested on: LG0703-F948-PDC complex spheroid viability
# Assay: Anticancer human tumor LG0703-F948-PDC patient-derived lung adenocarcinoma cell line growth inhibition [RAS]
# Settings: for pIC50: curve of first compound; for viability, T/C: stronger effect = lower value
# How it was run: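 Agents were tested in combination matrices in half-log decrements from a top concentration at or near clinical Cmax (10 microM if undetermined). Targets were multi-cell spheroids of tumour lines plus HUVEC and MSC stromal cells.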
# 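Further: spheroids exposed to agents for 7 days.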
# 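Wherever viability, T/C is given: 100% = DMSO vehicle wells.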
compound,measurement,setting,value
CC(Nc1ccc2c(c1)OCCn1cc(N3C(=O)OCC3C(F)F)nc1-2)C(N)=O (centres undefined) + CCn1c(-c2cccnc2C(C)OC)c2c3cc(ccc31)N1CCOC(CC(NC(=O)C(C(C)C)N(C)C(=O)C3(F)CCN(C(=O)C#CC(C)(C)N(C)C)CC3)C(=O)N3CCCC(N3)C(=O)OCC(C)(C)C2)C1,pIC50,second compound 0.000949 µM,5.59
same,pIC50,second compound 0.003 µM,5.65
same,pIC50,second compound 0.00949 µM,5.67
same,pIC50,second compound 0.03 µM,5.92
same,pIC50,second compound 0.0949 µM,6.41
same,pIC50,second compound 0.3 µM,> 7.50
same,"viability, T/C","second compound 0.000949 µM, first compound 0.0316 µM",101%
same,"viability, T/C","second compound 0.000949 µM, first compound 0.1 µM",82.3%
same,"viability, T/C","second compound 0.000949 µM, first compound 0.316 µM",89.8%
same,"viability, T/C","second compound 0.000949 µM, first compound 1 µM",63.6%
same,"viability, T/C","second compound 0.000949 µM, first compound 3.16 µM",46.5%
same,"viability, T/C","second compound 0.000949 µM, first compound 10 µM",24.1%
same,"viability, T/C","second compound 0.003 µM, first compound 0.0316 µM",102%
same,"viability, T/C","second compound 0.003 µM, first compound 0.1 µM",86.6%
same,"viability, T/C","second compound 0.003 µM, first compound 0.316 µM",72.8%
same,"viability, T/C","second compound 0.003 µM, first compound 1 µM",61.8%
same,"viability, T/C","second compound 0.003 µM, first compound 3.16 µM",45.4%
same,"viability, T/C","second compound 0.003 µM, first compound 10 µM",32.6%
same,"viability, T/C","second compound 0.00949 µM, first compound 0.0316 µM",102%
same,"viability, T/C","second compound 0.00949 µM, first compound 0.1 µM",83.2%
same,"viability, T/C","second compound 0.00949 µM, first compound 0.316 µM",77.8%
same,"viability, T/C","second compound 0.00949 µM, first compound 1 µM",54.6%
same,"viability, T/C","second compound 0.00949 µM, first compound 3.16 µM",52.7%
same,"viability, T/C","second compound 0.00949 µM, first compound 10 µM",25.4%
same,"viability, T/C","second compound 0.03 µM, first compound 0.0316 µM",100%
same,"viability, T/C","second compound 0.03 µM, first compound 0.1 µM",81.7%
same,"viability, T/C","second compound 0.03 µM, first compound 0.316 µM",60.8%
same,"viability, T/C","second compound 0.03 µM, first compound 1 µM",56.5%
same,"viability, T/C","second compound 0.03 µM, first compound 3.16 µM",41.5%
same,"viability, T/C","second compound 0.03 µM, first compound 10 µM",23.3%
same,"viability, T/C","second compound 0.0949 µM, first compound 0.0316 µM",74.1%
same,"viability, T/C","second compound 0.0949 µM, first compound 0.1 µM",64.8%
same,"viability, T/C","second compound 0.0949 µM, first compound 0.316 µM",54.3%
same,"viability, T/C","second compound 0.0949 µM, first compound 1 µM",35.2%
same,"viability, T/C","second compound 0.0949 µM, first compound 3.16 µM",31.7%
same,"viability, T/C","second compound 0.0949 µM, first compound 10 µM",19.9%
same,"viability, T/C","second compound 0.3 µM, first compound 0.0316 µM",41.6%
same,"viability, T/C","second compound 0.3 µM, first compound 0.1 µM",32.1%
same,"viability, T/C","second compound 0.3 µM, first compound 0.316 µM",24.8%
same,"viability, T/C","second compound 0.3 µM, first compound 1 µM",18.8%
same,"viability, T/C","second compound 0.3 µM, first compound 3.16 µM",15.4%
same,"viability, T/C","second compound 0.3 µM, first compound 10 µM",10.1%
O=C(c1ccc(F)c(F)c1Nc1ccc(I)cc1F)N1CC(O)([C@@H]2CCCCN2)C1 + C#Cc1c(F)ccc2cc(O)cc(-c3ncc4c(N5CC6CCC(C5)N6)nc(OCC56CCCN5CC(F)C6)nc4c3F)c12,pIC50,second compound 0.0316 µM,7.16
same,pIC50,second compound 0.1 µM,7.21
same,pIC50,second compound 0.316 µM,7.49
same,pIC50,second compound 1 µM,7.48
same,pIC50,second compound 3.16 µM,8.11
same,pIC50,second compound 10 µM,> 8.50
same,"viability, T/C","second compound 0.0316 µM, first compound 0.00316 µM",103%
same,"viability, T/C","second compound 0.0316 µM, first compound 0.01 µM",75.2%
same,"viability, T/C","second compound 0.0316 µM, first compound 0.0316 µM",60.5%
same,"viability, T/C","second compound 0.0316 µM, first compound 0.1 µM",45.4%
same,"viability, T/C","second compound 0.0316 µM, first compound 0.316 µM",35.6%
same,"viability, T/C","second compound 0.0316 µM, first compound 1 µM",24.1%
same,"viability, T/C","second compound 0.1 µM, first compound 0.00316 µM",91.8%
same,"viability, T/C","second compound 0.1 µM, first compound 0.01 µM",70.2%
same,"viability, T/C","second compound 0.1 µM, first compound 0.0316 µM",64%
same,"viability, T/C","second compound 0.1 µM, first compound 0.1 µM",39.4%
same,"viability, T/C","second compound 0.1 µM, first compound 0.316 µM",34.2%
same,"viability, T/C","second compound 0.1 µM, first compound 1 µM",21.9%
same,"viability, T/C","second compound 0.316 µM, first compound 0.00316 µM",80.5%
same,"viability, T/C","second compound 0.316 µM, first compound 0.01 µM",66.1%
same,"viability, T/C","second compound 0.316 µM, first compound 0.0316 µM",53.1%
same,"viability, T/C","second compound 0.316 µM, first compound 0.1 µM",31.6%
same,"viability, T/C","second compound 0.316 µM, first compound 0.316 µM",28.2%
same,"viability, T/C","second compound 0.316 µM, first compound 1 µM",22.3%
same,"viability, T/C","second compound 1 µM, first compound 0.00316 µM",66%
same,"viability, T/C","second compound 1 µM, first compound 0.01 µM",54.8%
same,"viability, T/C","second compound 1 µM, first compound 0.0316 µM",51.5%
same,"viability, T/C","second compound 1 µM, first compound 0.1 µM",24.4%
same,"viability, T/C","second compound 1 µM, first compound 0.316 µM",25.1%
same,"viability, T/C","second compound 1 µM, first compound 1 µM",19.7%
same,"viability, T/C","second compound 3.16 µM, first compound 0.00316 µM",56.8%
same,"viability, T/C","second compound 3.16 µM, first compound 0.01 µM",47.9%
same,"viability, T/C","second compound 3.16 µM, first compound 0.0316 µM",33.8%
same,"viability, T/C","second compound 3.16 µM, first compound 0.1 µM",21.4%
same,"viability, T/C","second compound 3.16 µM, first compound 0.316 µM",22.6%
same,"viability, T/C","second compound 3.16 µM, first compound 1 µM",16.3%
same,"viability, T/C","second compound 10 µM, first compound 0.00316 µM",43.9%
same,"viability, T/C","second compound 10 µM, first compound 0.01 µM",38.3%
same,"viability, T/C","second compound 10 µM, first compound 0.0316 µM",18.1%
same,"viability, T/C","second compound 10 µM, first compound 0.1 µM",17.3%
same,"viability, T/C","second compound 10 µM, first compound 0.316 µM",6.81%
same,"viability, T/C","second compound 10 µM, first compound 1 µM",2.29%
